Earlier results on two compounds are cited in patent US20150267258A1, “BIOMARKERS FOR DETERMINING EFFECTIVE RESPONSE OF TREATMENTS OF HEPATOCELLULAR CARCINOMA (HCC) PATIENTS” (BAYER PHARMA AKTIENGESELLSCHAFT, priority 2012, published 2015).

The structures appear in SMILES notation.

For data set [1], the system named is metastatic colorectal cancer. The settings on record: patients with metastatic colorectal cancer.

With `CNC(=O)c1cc(Oc2ccc(NC(=O)Nc3ccc(Cl)c(C(F)(F)F)c3)c(F)c2)ccn1` [Regorafenib, 4-[4-({[4-Chloro-3-(trifluoromethyl)phenyl]carbamoyl}amino)-3-fluorophenoxy]-N-methylpyridine-2-carboxamide], the Overall survival result in data set [1] is on record as “increase the overall survival”. For the compound `CNC(=O)c1cc(Oc2ccc(NC(=O)Nc3ccc(Cl)c(C(F)(F)F)c3)cc2)ccn1` [Sorafenib, 4-[4-[[4-chloro-3-(trifluoromethyl)phenyl]carbamoylamino]phenoxy]-N-methyl-pyridine-2-carboxamide], in the data set on lung cancer, the “Effectiveness in lung cancer” value is reported as “effective in lung cancer”.
